Measurements from EP0538001A1, “MRSA active 2-halophenyl carbapenems” (MERCK & CO. INC., priority 1991, dated 1993).

test system: MRSA; experiment: Activity against a strain of MRSA pathogen, relative to thienamycin; type: cell-based, methicillin resistant Staphylococcus aureus; details: relative to the effectiveness of thienamycin, arbitrarily assigned an effectiveness of 1; one strain of MRSA
Method: The activity of the following compounds was measured against a strain of MRSA pathogen and reported as relative to the effectiveness of thienamycin, which is arbitrarily assigned an effectiveness of 1. Regarding this measure of activity, reference is made to R. Guthikonda, et al., J. Med. Chem., 30, 871 (1987). [drawing 18]

In order of rising “ANTI-INFECTIVE ACTIVITY MRSA” value:
1. C[C@@H](O)[C@H]1C(=O)N2C(C(=O)O)=C(c3ccc(F)cc3)C[C@H]12 [R^a1 = H, R^a2 = F]  1.1
2. C[C@@H](O)[C@H]1C(=O)N2C(C(=O)O)=C(c3ccc(Cl)cc3)C[C@H]12 [R^a1 = H, R^a2 = Cl]  1.3
3. C[C@@H](O)[C@H]1C(=O)N2C(C(=O)O)=C(c3ccc(Br)cc3)C[C@H]12 [R^a1 = H, R^a2 = Br]  1.6
4. C[C@@H](O)[C@H]1C(=O)N2C(C(=O)O)=C(c3ccc(I)cc3)C[C@H]12 [R^a1 = H, R^a2 = I]  1.8
5. C[C@@H](O)[C@H]1C(=O)N2C(C(=O)O)=C(c3cccc(F)c3)C[C@H]12 [R^a1 = F, R^a2 = H]  2
6. C[C@@H](O)[C@H]1C(=O)N2C(C(=O)O)=C(c3cccc(Cl)c3)C[C@H]12 [R^a1 = Cl, R^a2 = H]  8.1
7. C[C@@H](O)[C@H]1C(=O)N2C(C(=O)O)=C(c3cccc(Br)c3)C[C@H]12 [R^a1 = Br, R^a2 = H, sodium (5R,6S)-2-[3-bromophenyl]-6[(1R)-1-hydroxyethyl]-carbapen-2-em-3-carboxylate]  14
